Source: patent EP4309500B1, “PEROXIDASE BASED BIOCONTROL AGENTS” (Acies Bio d.o.o., priority 2022, dated 2024)
Read-outs that look alike come from different tables or passages of the source.

Columns and labels:
[1] = tested on: OkePOXs, functional fragment of OkePOX heme peroxidase from Okeania hirsuta (amino acids 117 to 659 of SEQ ID NO: 11), SEQ ID NO: 25 or 27; details: KI 0.03 - 4 mM, 0.1 mM H2O2, 100 µM thymol blue, 1 µg/ml peroxidase
Experimental: (§3) The bacterial peroxidases (HydPOX, HydPOXs, OkePOXs) were compared to LpoPOX and LspPOX under these modified conditions.
(§4) The enzymatic reactions were performed at room temperature for 30 min in clear flat-bottomed microplate wells containing 200 µl 0.1 M phosphate buffer pH 7.2, 100 µM thymol blue, 1 µg/ml of recombinant bacterial peroxidase (or commercial LpoPOX as defined in SEQ ID NO: 16), H2O2 and a reducing agent such as I^- (general assay setup).
(§5) Kinetic constants were calculated using a nonlinear regression fitting curve (Figure 9A). […] For this reason, K0.5 values are used indicating the substrate concentration at which half maximal velocity/half-saturation is achieved.

[2] = tested on: HydPOXs, HydPOX peroxidase without proregion (amino acids 117 to 659 of SEQ ID NO: 1), SEQ ID NO: 18; details: KI 0.03 - 4 mM, 0.1 mM H2O2, 100 µM thymol blue, 1 µg/ml peroxidase, 0.1 M phosphate buffer pH 7.2, room temperature (Example 13)
Experimental: as §3, §4, §5

[3] = molecular target: T1, LpoPOX, bovine lactoperoxidase, commercial protein, SEQ ID NO: 16 (lacks the propeptide region) (Bos taurus, UniProt P80025); assay: Thymol blue assay (halogenation assay), kinetics at 0.1 mM H2O2 (Example 13); type: biochemical; details: KI 0.03 - 4 mM, 0.1 mM H2O2, 100 µM thymol blue, 1 µg/ml peroxidase
T1 construct: purchased
Experimental: as §3, §4, §5

[4] = tested on: LspPOX, peroxidase from Lyngbya sp. (strain PCC 8106), mature protein amino acids 117-661 of SEQ ID NO: 12; assay: as above; type: biochemical, Lyngbya sp. PCC 8106; details: KI 0.03 - 4 mM, 0.1 mM H2O2, 100 µM thymol blue, 1 µg/ml peroxidase
Experimental: as §3, §4, §5

[5] = tested on: LspPOX, peroxidase from Lyngbya sp. (strain PCC 8106), mature protein amino acids 117-661 of SEQ ID NO: 12; details: ABTS 0.025 - 10 mM, 10 nM peroxidase, 100 µM H2O2, 50 mM phosphate buffer pH 6.0, 25 °C, optimized fitting (Example 4.1)
Experimental: (§1) The reaction in presence of H2O2 can be easily measured on microplate reader.
The oxidation reaction was read for 30 min at 25 °C.

[6] = tested on: LspPOX, peroxidase from Lyngbya sp. (strain PCC 8106), mature protein amino acids 117-661 of SEQ ID NO: 12; details: ABTS 0.025 - 5 mM, 6.45 nM peroxidase, 100 µM H2O2, 50 mM sodium acetate buffer pH 5.0, 25 °C (Example 12)
Experimental: (§2) The assays were performed in triplicates on a TECAN microtiter plate reader in a total of 200 µL. […] The oxidation reaction was read for 30 min at 25 °C.

[7] = tested on: HydPOXs, HydPOX peroxidase without proregion (amino acids 117 to 659 of SEQ ID NO: 1), SEQ ID NO: 18; details: ABTS 0.025 - 5 mM, 6.45 nM peroxidase, 100 µM H2O2, 50 mM sodium acetate buffer pH 5.0, 25 °C (Example 12)
Experimental: as §2

[8] = tested on: LspPOX, peroxidase from Lyngbya sp. (strain PCC 8106), mature protein amino acids 117-661 of SEQ ID NO: 12; details: ABTS 0.025 - 10 mM, 10 nM peroxidase, H2O2, 50 mM phosphate buffer pH 6.0, 25 °C (Example 4)
Experimental: as §1
The oxidation reaction was read for 30 min at 25 °C. […] The concentration of the added H2O2 solution was 200 µM.

[9] = 0.1 M phosphate buffer pH 7.2, room temperature (Example 13)
[10] = 0.1 M phosphate buffer pH 7.2, room temperature, sigmoidal fitting (Example 13), 30 min, read-out: K0.5

| Structure (SMILES) | kcat [1, 9] [s⁻¹] | kcat/K0.5 [1, 9] [M⁻¹ s⁻¹] | Km ([1]; read-out: K0.5, 0.1 M phosphate buffer pH 7.2, room temperature, sigmoidal fitting (Example 13), 30 min) [µM] | kcat [2] [s⁻¹] | kcat/K0.5 [2] [M⁻¹ s⁻¹] | kcat [3, 9] [s⁻¹] | kcat/K0.5 [3, 9] [M⁻¹ s⁻¹] | Km [3, 10] [µM] | kcat [4, 9] [s⁻¹] | kcat/K0.5 [4, 9] [M⁻¹ s⁻¹] | Km [4, 10] [µM] | Km [5] [µM] | kcat [5] [s⁻¹] | Km [6] [µM] | kcat [6] [s^1] | kcat [7] [s^1] | Km [8] [µM] | kcat [8] |
| --- | --- | --- | --- | --- | --- | --- | --- | --- | --- | --- | --- | --- | --- | --- | --- | --- | --- | --- |
| [I-].[K+] [KI, potassium iodide] | 13.7 | 118600 | 120 | 10.6 | 85100 | 16.5 | 12500 | 1320 | 14.7 | 10600 | 1390 |  |  |  |  |  |  |  |
| CCn1c(=NN=c2sc3cc(S(=O)(=O)O)ccc3n2CC)sc2cc(S(=O)(=O)O)ccc21 [ABTS, 2,2'-azino-bis (3-ethylbenzothiazoline-6-sulfonic acid)] |  |  |  |  |  |  |  |  |  |  |  | 180 | 6.3 | 1090 | 57 | 95 | 237 | 7,45 s^-1 |
